According to the NIST ThermoML archive (doi:10.1021/je1002434):
Numbers after ± are expanded uncertainties.

Assays:
[1] = for surface tension liquid-gas: Maximal bubble pressure; for mass density: 101 kPa, Liquid, Buoyancy - hydrostatic balance with magnetic suspension - one sinker
[2] = wn = mass fraction of the nth substance listed; settings: for surface tension liquid-gas: Maximal bubble pressure; for mass density: 101 kPa, Liquid, Buoyancy - hydrostatic balance with magnetic suspension - one sinker

In the case of CCCn1cc[n+](C)c1.N[C@@H](CCC(=O)O)C(=O)[O-], the surface tension liquid-gas ([1]; 298.15 K) is reported as 60.8 ± 0.5 mN/m, the mass density ([1]; 298.15 K) is reported as 1229.2 ± 0.6 kg/m3 and the surface tension liquid-gas ([1]; 318.15 K) is reported as 54.7 ± 0.4 mN/m. The mass density ([1]; 318.15 K) was 1218.6 ± 0.6 kg/m3, the surface tension liquid-gas ([1]; 323.15 K) was 53.2 ± 0.4 mN/m and the mass density ([1]; 323.15 K) was 1215.9 ± 0.6 kg/m3. For the same compound, the surface tension liquid-gas ([1]; 328.15 K) was 51.8 ± 0.4 mN/m, the mass density ([1]; 328.15 K) was 1213.2 ± 0.6 kg/m3 and the surface tension liquid-gas ([1]; 333.15 K) was 50.1 ± 0.4 mN/m. For the same compound, the mass density ([1]; 333.15 K) was 1210.6 ± 0.6 kg/m3, the surface tension liquid-gas ([1]; 338.15 K) was 48.7 ± 0.4 mN/m and the mass density ([1]; 338.15 K) was 1208.2 ± 0.6 kg/m3. For the same compound, the mass density ([1]; 343.15 K) was 1205.3 ± 0.6 kg/m3.
In the case of CCCn1cc[n+](C)c1.N[C@@H](CCC(=O)O)C(=O)[O-] + O, the surface tension liquid-gas ([2]; 318.15 K, w2 = 0.0089) is reported as 55.2 ± 0.5 mN/m, the surface tension liquid-gas ([2]; 318.15 K, w2 = 0.012) is reported as 55.4 ± 0.5 mN/m and the surface tension liquid-gas ([2]; 318.15 K, w2 = 0.0151) is reported as 55.5 ± 0.5 mN/m. It also gave a surface tension liquid-gas ([2]; 318.15 K, w2 = 0.0192) of 55.7 ± 0.5 mN/m, a surface tension liquid-gas ([2]; 318.15 K, w2 = 0.0222) of 56 ± 0.5 mN/m and a mass density ([2]; 318.15 K, w2 = 0.00841) of 1204.8 ± 0.6 kg/m3. It also gave a mass density ([2]; 318.15 K, w2 = 0.01002) of 1202 ± 0.5 kg/m3, a mass density ([2]; 318.15 K, w2 = 0.01126) of 1200.3 ± 0.5 kg/m3 and a mass density ([2]; 318.15 K, w2 = 0.01281) of 1197.4 ± 0.5 kg/m3. For the same compound, the mass density ([2]; 318.15 K, w2 = 0.01404) was 1195.6 ± 0.5 kg/m3, the surface tension liquid-gas ([2]; 323.15 K, w2 = 0.0089) was 53.8 ± 0.5 mN/m and the surface tension liquid-gas ([2]; 323.15 K, w2 = 0.012) was 54 ± 0.5 mN/m. For the same compound, the surface tension liquid-gas ([2]; 323.15 K, w2 = 0.0151) was 54.2 ± 0.5 mN/m, the surface tension liquid-gas ([2]; 323.15 K, w2 = 0.0192) was 54.4 ± 0.5 mN/m and the surface tension liquid-gas ([2]; 323.15 K, w2 = 0.0222) was 54.7 ± 0.5 mN/m. It also gave a mass density ([2]; 323.15 K, w2 = 0.00841) of 1202.2 ± 0.5 kg/m3, a mass density ([2]; 323.15 K, w2 = 0.01002) of 1199.3 ± 0.5 kg/m3 and a mass density ([2]; 323.15 K, w2 = 0.01126) of 1197.6 ± 0.5 kg/m3. The mass density ([2]; 323.15 K, w2 = 0.01281) was 1194.7 ± 0.5 kg/m3, the mass density ([2]; 323.15 K, w2 = 0.01404) was 1193 ± 0.5 kg/m3 and the surface tension liquid-gas ([2]; 328.15 K, w2 = 0.0089) was 52.5 ± 0.5 mN/m. The surface tension liquid-gas ([2]; 328.15 K, w2 = 0.012) was 52.6 ± 0.5 mN/m, the surface tension liquid-gas ([2]; 328.15 K, w2 = 0.0151) was 52.8 ± 0.5 mN/m and the surface tension liquid-gas ([2]; 328.15 K, w2 = 0.0192) was 53.1 ± 0.5 mN/m. It also gave a surface tension liquid-gas ([2]; 328.15 K, w2 = 0.0222) of 53.4 ± 0.5 mN/m, a mass density ([2]; 328.15 K, w2 = 0.00841) of 1199.5 ± 0.5 kg/m3 and a mass density ([2]; 328.15 K, w2 = 0.01002) of 1196.7 ± 0.5 kg/m3. It also gave a mass density ([2]; 328.15 K, w2 = 0.01126) of 1195 ± 0.5 kg/m3, a mass density ([2]; 328.15 K, w2 = 0.01281) of 1192 ± 0.5 kg/m3 and a mass density ([2]; 328.15 K, w2 = 0.01404) of 1190.4 ± 0.5 kg/m3. It also gave a surface tension liquid-gas ([2]; 333.15 K, w2 = 0.0089) of 50.7 ± 0.5 mN/m, a surface tension liquid-gas ([2]; 333.15 K, w2 = 0.012) of 51.2 ± 0.5 mN/m and a surface tension liquid-gas ([2]; 333.15 K, w2 = 0.0151) of 51.4 ± 0.5 mN/m. The surface tension liquid-gas ([2]; 333.15 K, w2 = 0.0192) was 51.7 ± 0.5 mN/m, the surface tension liquid-gas ([2]; 333.15 K, w2 = 0.0222) was 51.9 ± 0.5 mN/m and the mass density ([2]; 333.15 K, w2 = 0.00841) was 1196.9 ± 0.5 kg/m3. For the same compound, the mass density ([2]; 333.15 K, w2 = 0.01002) was 1194 ± 0.5 kg/m3, the mass density ([2]; 333.15 K, w2 = 0.01126) was 1192.3 ± 0.5 kg/m3 and the mass density ([2]; 333.15 K, w2 = 0.01281) was 1189.4 ± 0.5 kg/m3. It also gave a mass density ([2]; 333.15 K, w2 = 0.01404) of 1187.7 ± 0.5 kg/m3, a surface tension liquid-gas ([2]; 338.15 K, w2 = 0.0089) of 49.4 ± 0.5 mN/m and a surface tension liquid-gas ([2]; 338.15 K, w2 = 0.012) of 49.9 ± 0.5 mN/m. For the same compound, the surface tension liquid-gas ([2]; 338.15 K, w2 = 0.0151) was 50.2 ± 0.5 mN/m, the surface tension liquid-gas ([2]; 338.15 K, w2 = 0.0192) was 50.4 ± 0.5 mN/m and the surface tension liquid-gas ([2]; 338.15 K, w2 = 0.0222) was 50.7 ± 0.5 mN/m. The mass density ([2]; 338.15 K, w2 = 0.00841) was 1194.3 ± 0.5 kg/m3, the mass density ([2]; 338.15 K, w2 = 0.01002) was 1191.4 ± 0.5 kg/m3 and the mass density ([2]; 338.15 K, w2 = 0.01126) was 1189.6 ± 0.5 kg/m3. For the same compound, the mass density ([2]; 338.15 K, w2 = 0.01281) was 1186.7 ± 0.5 kg/m3, the mass density ([2]; 338.15 K, w2 = 0.01404) was 1185 ± 0.5 kg/m3 and the mass density ([2]; 343.15 K, w2 = 0.00841) was 1191.6 ± 0.5 kg/m3. For the same compound, the mass density ([2]; 343.15 K, w2 = 0.01002) was 1188.7 ± 0.5 kg/m3, the mass density ([2]; 343.15 K, w2 = 0.01126) was 1187 ± 0.5 kg/m3 and the mass density ([2]; 343.15 K, w2 = 0.01281) was 1184.1 ± 0.5 kg/m3. The mass density ([2]; 343.15 K, w2 = 0.01404) was 1182.4 ± 0.5 kg/m3.
